Measurements from patent publication US8273769B2, “Phenoxy acetic acid derivatives” (Merck Serono SA, priority 2009, dated 2012).

target: T1, CRTH2 (Homo sapiens, UniProt Q9Y5Y4); assay: Radioligand binding Scintillation Proximity Assay ([3H]PGD2, hCRTH2-CHO cell membranes); design: host or cells: CHO cells; details: 1.5 nM [3H]PGD2, hCRTH2-CHO cell membranes, SPA
T1 sequence (Q9Y5Y4 1-395): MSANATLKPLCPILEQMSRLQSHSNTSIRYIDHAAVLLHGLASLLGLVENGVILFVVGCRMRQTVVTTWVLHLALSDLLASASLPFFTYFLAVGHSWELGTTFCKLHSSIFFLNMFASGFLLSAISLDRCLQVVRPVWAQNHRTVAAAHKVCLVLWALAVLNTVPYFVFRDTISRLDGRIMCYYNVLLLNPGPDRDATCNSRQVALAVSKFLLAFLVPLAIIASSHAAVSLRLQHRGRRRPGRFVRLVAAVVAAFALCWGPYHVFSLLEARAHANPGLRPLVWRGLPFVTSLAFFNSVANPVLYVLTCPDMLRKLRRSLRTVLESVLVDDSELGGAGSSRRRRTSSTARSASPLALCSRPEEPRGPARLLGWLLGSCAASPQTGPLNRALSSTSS
Procedure: Adherent CHO cells expressing hCRTH2 (Euroscreen, Belgium) were cultured in 225 cm^2 cell culture flasks (Corning, USA) in 30 ml of medium. After two rinses of phosphate buffered saline (PBS), cells were harvested in 10 ml of PBS containing 1 mM EDTA, centrifuged at 500×g for 5 min at 4° C. and frozen at −80° C. The pellet was re-suspended in 50 mM Tris-HCl, pH 7.4, 2 mM EDTA, 250 mM Sucrose, containing protease inhibitor cocktail tablets, (Complete EDTA-free, Roche, Germany) and incubated 30 min at 4° C. Cells were disrupted by nitrogen cavitation (Parr Instruments, USA) at 4° C. (800 p.s.i. for 30 min), and centrifuged at 500×g for 10 min at 4° C. Pellet containing nuclei and cellular debris was discarded and supernatant was centrifuged 60 min at 4° C. at 45000×g. Membrane pellet was re-suspended in storage buffer (10 mM HEPES/KOH pH 7.4, 1 mM EDTA, 250 mM sucrose, protease inhibitor cocktail tablets) using Dounce homogenization and frozen in liquid nitrogen, and stored at −80° C.
The inhibitory activity can be investigated by a radioligand binding Scintillation Proximity Assay (SPA) (Sawyer et al., Br. J. Pharmocol 2002, 137, 1163-72). The SPA radioligand binding assay was performed at room temperature in binding buffer (10 mM HEPES/KOH pH 7.4, 10 mM MnCl2, with protease inhibitor cocktail tablets), containing 1.5 nM [^3H]PGD2 (Perkin Elmer), 10-50 μg/ml of hCRTH2-CHO cell membrane protein and 2 mg/ml of Wheat-germ agglutinin Sintillation Proximity Assay beads (RPNQ0001, GE-Healthcare) in a final volume of 100 μl in 96 well plates (Corning, USA). Non-specific binding was determined in the presence of 10 μM PGD2 (Cayman, USA). Competing Compounds of Formula (I) were diluted in dimethylsulphoxide so that the total volume of dimethylsulfoxide was kept constant at 1% dimethylsulphoxide (Me2SO). Serial dilutions of 100 μM to 100 pM were prepared and 10 μl each of the compounds of Formula (I) stock solutions were added to the binding assay reagents and incubated for 90 min with agitation at room temperature. Binding activity was determined by using a 1450 Micro-beta scintillation counter (Wallac, UK).

Structure (SMILES)	IC50
CCCS(=O)(=O)c1cc(C#Cc2cc(Cl)ccc2OCC(=O)O)c(C)cc1NC(C)=O [Example 153, (2-{[4-(acetylamino)-2-methyl-5-(propylsulfonyl)phenyl]ethynyl}-4-chlorophenoxy)acetic acid]	0.001 µM
CCCS(=O)(=O)c1ccc(C)c(C#Cc2cc(Cl)ccc2OC(CC)C(=O)O)c1 (stereo not shown) [Example 170, 2-(4-chloro-2-{[2-methyl-5-(propylsulfonyl)phenyl]ethynyl}phenoxy)butanoic acid]	0.035 µM
N#Cc1ccc(OCC(=O)O)c(C#Cc2cncc(S(=O)(=O)N3CC(F)(F)C3)c2)c1 [Example 76, [4-cyano-2-({5-[(3,3-difluoroazetidin-1-yl)sulfonyl]pyridin-3-yl}ethynyl)phenoxy]acetic acid]	0.171 µM
CCCS(=O)(=O)c1ccc(F)c(C#Cc2cc(Cl)cnc2OCC(=O)O)c1 [Example 129, [(5-chloro-3-{[2-fluoro-5-(propylsulfonyl)phenyl]ethynyl}pyridin-2-yl)oxy]acetic acid]	0.01 µM
COCc1ccc(C#Cc2cc(Cl)ccc2OCC(=O)O)c(F)c1 [Example 34, (4-chloro-2-{[2-fluoro-4-(methoxymethyl)phenyl]ethynyl}phenoxy)acetic acid]	0.026 µM
Cc1cc[n+]([O-])cc1C#Cc1cc(Cl)ccc1OCC(=O)O [Example 31, {4-chloro-2-[(4-methyl-1-oxidopyridin-3-yl)ethynyl]phenoxy}acetic acid]	0.019 µM
Cc1ccc(S(=O)(=O)Cc2ccccc2)cc1C#Cc1cc(C#N)ccc1OCC(=O)O [Example 93, (2-{[5-(benzylsulfonyl)-2-methylphenyl]ethynyl}-4-cyanophenoxy)acetic acid]	0.013 µM
Cc1ccc(S(=O)(=O)NCC(C)(C)C)cc1C#Cc1cc(Cl)ccc1OCC(=O)O [Example 113, {4-chloro-2-[(5-{[(2,2-dimethylpropyl)amino]sulfonyl}-2-methylphenyl)ethynyl]phenoxy}acetic acid]	0.002 µM
CS(=O)(=O)c1ccc(Cl)c(C#Cc2cc(C#N)ccc2OCC(=O)O)c1 [Example 61, (2-{[2-chloro-5-(methylsulfonyl)phenyl]ethynyl}-4-cyanophenoxy)acetic acid]	0.008 µM
O=C(O)COc1ccccc1C#Cc1ccccc1Cl [Example 45, {2-[(2-chlorophenyl)ethynyl]phenoxy}acetic acid]	0.958 µM
COc1ccc(-c2ccc(C#Cc3cc(Cl)ccc3OCC(=O)O)cc2S(C)(=O)=O)cc1 [Example 141, (4-chloro-2-{[4′-methoxy-2-(methylsulfonyl)biphenyl-4-yl]ethynyl}phenoxy)acetic acid]	0.008 µM
CCCS(=O)(=O)c1cccc(C#Cc2cc(-c3cnn(C)c3)ccc2OCC(=O)O)c1 [Example 135, (4-(1-methyl-1H-pyrazol-4-yl)-2-{[3-(propylsulfonyl)phenyl]ethynyl}phenoxy)acetic acid]	0.53 µM
O=C(O)COc1ccc(Cl)cc1C#Cc1ccccc1F [Example 5, {4-chloro-2-[(2-fluorophenyl)ethynyl]phenoxy}acetic acid]	0.056 µM
Cc1ccc(S(=O)(=O)N(C)C2CCCC2)cc1C#Cc1cc(Cl)ccc1OCC(=O)O [Example 121, {4-chloro-2-[(5-{[cyclopentyl(methyl)amino]sulfonyl}-2-methylphenyl)ethynyl]phenoxy}acetic acid]	0.008 µM
CCCS(=O)(=O)c1cccc(C#Cc2cc(-c3c(C)nn(C)c3C)ccc2OCC(=O)O)c1 [Example 136, [2-{[3-(Propylsulfonyl)phenyl]ethynyl}-4-(1,3,5-trimethyl-1H-pyrazol-4-yl)phenoxy]acetic acid]	0.36 µM
O=C(O)COc1ccc(Cl)cc1C#Cc1ccc(Cl)s1 [Example 10, {4-chloro-2-[(5-chloro-2-thienyl)ethynyl]phenoxy}acetic acid]	0.267 µM
CS(=O)(=O)c1cncc(C#Cc2cc(C#N)ccc2OCC(=O)O)c1 [Example 69, (4-cyano-2-{[5-(methylsulfonyl)pyridin-3-yl}ethynyl]phenoxy)acetic acid]	0.186 µM

Structure (SMILES)	IC50
Cc1ccc(S(=O)(=O)CCc2ccccc2)cc1C#Cc1cc(Cl)ccc1OCC(=O)O [Example 92, [4-chloro-2-({2-methyl-5-[(2-phenylethyl)sulfonyl]phenyl}ethynyl)phenoxy]acetic acid]	0.009 µM
O=C(O)COc1ccc(Cl)cc1C#Cc1ccc(NC(=O)c2ccccc2)cc1 [Example 151, (2-{[4-(benzoylamino)phenyl]ethynyl}-4-chlorophenoxy)acetic acid]	0.028 µM
CS(=O)(=O)Nc1cncc(C#Cc2cc(Cl)ccc2OCC(=O)O)c1 [Example 39, [4-chloro-2-({5-[(methylsulfonyl)amino]pyridin-3-yl}ethynyl)phenoxy]acetic acid]	0.023 µM
Cc1ccc(NS(C)(=O)=O)cc1C#Cc1cc(Cl)ccc1OCC(=O)O [Example 137, [4-chloro-2-({2-methyl-5-[(methylsulfonyl)amino]phenyl}ethynyl)phenoxy]acetic acid]	0.07 µM
CCCS(=O)(=O)c1ccc(C)c(C#Cc2cc(Cl)ccc2OC(CC(C)C)C(=O)O)c1 (stereo not shown) [Example 172, 2-(4-chloro-2-{[2-methyl-5-(propylsulfonyl)phenyl]ethynyl}phenoxy)-4-methylpentanoic acid]	0.06 µM
N#Cc1ccc(OCC(=O)O)c(C#Cc2ccccc2Cl)c1 [Example 23, {2-[(2-chlorophenyl)ethynyl]-4-cyanophenoxy}acetic acid]	0.03 µM
CCCS(=O)(=O)c1cccc(C#Cc2cc(-c3cccs3)ccc2OCC(=O)O)c1 [Example 134, [2-{[3-(propylsulfonyl)phenyl]ethynyl}-4-(2-thienyl)phenoxy]acetic acid]	0.015 µM
CCCS(=O)(=O)c1ccc(F)c(C#Cc2cc(Cl)ccc2OC(C)(C)C(=O)O)c1 [Example 169, 2-(4-chloro-2-{[2-fluoro-5-(propylsulfonyl)phenyl]ethynyl}phenoxy)-2-methylpropanoic acid]	0.287 µM
Cc1ncccc1C#Cc1cc(Cl)ccc1OCC(=O)O [Example 22, {4-chloro-2-[(2-methylpyridin-3-yl)ethynyl]phenoxy}acetic acid]	0.175 µM
CCNS(=O)(=O)c1ccc(C)c(C#Cc2cc(Cl)ccc2OCC(=O)O)c1 [Example 16, [4-chloro-2-({5-[(ethylamino)sulfonyl]-2-methylphenyl}ethynyl)phenoxy]acetic acid]	0.006 µM
Cc1ccc(S(=O)(=O)N2CCCCC2)cc1C#Cc1cc(Cl)ccc1OCC(=O)O [Example 88, (4-chloro-2-{[2-methyl-5-(piperidin-1-ylsulfonyl)phenyl]ethynyl}phenoxy)acetic acid]	0.007 µM
O=C(O)COc1ccc(Cl)cc1C#Cc1cncc(S(=O)(=O)NCCO)c1 [Example 46, {4-chloro-2-[(5-{[(2-hydroxyethyl)amino]sulfonyl}pyridin-3-yl)ethynyl]phenoxy}acetic acid]	0.323 µM
Cc1ncc(S(=O)(=O)N(C)C)cc1C#Cc1cc(Cl)ccc1OCC(=O)O [Example 139, [4-chloro-2-({5-[(dimethylamino)sulfonyl]-2-methylpyridin-3-yl}ethynyl)phenoxy]acetic acid]	0.051 µM
O=C(O)COc1ccc(Cl)cc1C#Cc1cccc(C(=O)N2CCOCC2)c1 [Example 126, (4-chloro-2-{[3-(morpholin-4-ylcarbonyl)phenyl]ethynyl}phenoxy)acetic acid]	0.06 µM
O=C(O)COc1ccc(Cl)cc1C#Cc1cccc(CO)c1F [Example 28, (4-chloro-2-{[2-fluoro-3-(hydroxymethyl)phenyl]ethynyl}phenoxy)acetic acid]	0.048 µM
Cc1ccc(S(=O)(=O)N(C)CCN(C)C)cc1C#Cc1cc(Cl)ccc1OCC(=O)O [Example 122, {4-chloro-2-[(5-{[[2-(dimethylamino)ethyl](methyl)amino]sulfonyl}-2-methylphenyl)ethynyl]phenoxy}acetic acid]	0.452 µM
N#Cc1ccc(F)c(C#Cc2cc(Cl)ccc2OCC(=O)O)c1 [Example 21, {4-chloro-2-[(5-cyano-2-fluorophenyl)ethynyl]phenoxy}acetic acid]	0.046 µM
